Results published in patent US20260297542A1, “HERBICIDE RESISTANT PLANTS” (SYNGENTA CROP PROTECTION AG, priority 2023, published 2026).
Residue numbers refer to the chain shown, from its start.

Experiments:
[1] = target: T1, AtPPO1 S305L V365M (SEQ ID NO.128) (Arabidopsis thaliana, UniProt P55826, S305L/V365M); assay: fluorescent Protoporphyrinogen Oxidase assay, crude extract; assay type: biochemical; details: read-out: percentage inhibition
T1 construct: made in house; host or cells: E. coli BL21 (DE3) hemG, crude extract
T1 sequence (P55826 35-537 S305L/V365M): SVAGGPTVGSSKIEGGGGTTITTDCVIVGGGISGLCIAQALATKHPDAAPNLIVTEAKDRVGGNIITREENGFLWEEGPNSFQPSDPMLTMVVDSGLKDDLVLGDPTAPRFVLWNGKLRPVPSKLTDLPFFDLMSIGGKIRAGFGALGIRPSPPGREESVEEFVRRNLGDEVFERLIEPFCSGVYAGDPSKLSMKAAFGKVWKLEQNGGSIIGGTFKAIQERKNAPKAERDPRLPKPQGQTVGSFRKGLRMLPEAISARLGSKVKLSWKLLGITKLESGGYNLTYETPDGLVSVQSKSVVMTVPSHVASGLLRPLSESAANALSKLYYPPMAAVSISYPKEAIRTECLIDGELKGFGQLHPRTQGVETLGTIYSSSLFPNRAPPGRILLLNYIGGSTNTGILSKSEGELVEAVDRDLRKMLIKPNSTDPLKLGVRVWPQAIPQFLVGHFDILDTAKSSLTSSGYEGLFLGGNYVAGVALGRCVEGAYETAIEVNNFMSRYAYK

[2] = target: T2, AtPPO1 Y426M T461Q L479M (SEQ ID NO.132) (Arabidopsis thaliana, UniProt P55826, L479M/T461Q/Y426M); assay: as above; assay type: biochemical; details: read-out: percentage inhibition
T2 construct: made in house; host or cells: E. coli BL21 (DE3) hemG, crude extract
T2 sequence (P55826 35-537 Y426M/T461Q/L479M): T1 sequence (P55826 35-537 S305L/V365M) with L271S, M331V, Y392M, T427Q, L445M

| Compound | inhibition at 0.1 ppm [1] [%] | inhibition at 1 ppm [1] [%] | inhibition at 10 ppm [1] [%] | inhibition at 100 ppm [1] [%] | inhibition at 0.1 ppm [2] [%] | inhibition at 1 ppm [2] [%] | inhibition at 10 ppm [2] [%] | inhibition at 100 ppm [2] [%] |
| --- | --- | --- | --- | --- | --- | --- | --- | --- |
| CC(C)N(C)S(=O)(=O)NC(=O)c1cc(-n2c(=O)cc(C(F)(F)F)n(C)c2=O)c(F)cc1Cl [Herbicide E, saflufenacil] | 0 | 71 | 91 | 100 | 0 | 26 | 70 | 100 |
| C#CCN1C(=O)C(F)(F)Oc2cc(F)c(-n3c(=O)n(C)c(=S)n(C)c3=O)cc21 [Herbicide B, trifludimoxazin] | 100 | 97 | 95 | 100 | 100 | 100 | 100 | 100 |
| CCOC(=O)COc1ncccc1Oc1cc(-n2c(=O)cc(C(F)(F)F)n(C)c2=O)c(F)cc1Cl [Herbicide A, epyrifenacil] | 41 | 64 | 92 | 91 | 10 | 51 | 77 | 100 |
| CCOC(=O)C1(C)CC(c2cc(-n3c(=O)cc(C(F)(F)F)n(C)c3=O)c(F)cc2Cl)=NO1 (stereo not shown) [Herbicide C, 3-(2-chloro-4-fluoro-5-(3-methyl-2,6-dioxo-4-trifluoromethyl-3,6-dihydropyrimidin-1(2H)-yl)phenyl)-5-methyl-4,5-dihydroisoxazole-5-carboxylic acid ethyl ester] | 45 | 76 | 95 | 100 | 26 | 54 | 75 | 100 |
| CCOC(=O)[C@]1(C)CC(c2cc(-n3c(=O)n(C)c(=S)n(C)c3=O)c(F)cc2Cl)=NO1 [Herbicide D, ethyl (5S)-3-[2-chloro-5-(3,5-dimethyl-2,6-dioxo-4-thioxo-1,3,5-triazinan-1-yl)-4-fluoro-phenyl]-5-methyl-4H-isoxazole-5-carboxylate] | 51 | 84 | 96 | 100 | 58 | 79 | 95 | 100 |
